Measured values from patent US7629364B2, “Compounds that abrogate DNA-damage-induced cell cycle G2 checkpoint and/or augment anti-cancer activity of DNA-damaging treatments” (Canbas Co., Ltd., priority 2002, dated 2009).
“Also recorded” adds a separate entry of the source. Read-outs that look alike come from different tables or passages of the source.

Assays:
Jurkat cells [1] = experiment: G2 checkpoint abrogation in bleomycin-treated Jurkat cells (flow cytometry of DNA content); type: cell-based, human; details: for abrogation of bleomycin-induced accumulation of G2/M cells (% G2/M): bleomycin 40 μg/ml plus compound 0.2-50 μg/ml
Protocol: (§1) Cell culture. A human T-cell leukemia-derived cell line, Jurkat, was cultured in RPMI 1640 media (Sigma) supplemented with 10% fetal calf serum (IBL: Immuno-Biological Laboratories, Gunma, Japan) at 37° C./5% CO2. A human colon cancer-derived cell line, HCT116, was cultured in McCoy's 5A Medium Modified (Gibco BRL) and supplemented with 10% fetal calf serum at 37° C./5% CO2. Normal human peripheral blood lymphocytes were separated by Ficoll-Paque® (Pharmacia) and cultured in the presence of 0.1 μg/ml PHA and 1 μg/ml IL-2.
(§2) Cell-cycle analysis. […] Briefly, two million cells were resuspended and incubated in 300 μl Krishan's solution (0.1% Sodium citrate, 50 μg/ml PI, 20 μg/ml RNase A and 0.5% NP-40) for 1 hr at 4° C. and analyzed by flow cytometry using a FACScan™ flow cytometer (Beckton Dickinson, Mountain View, Calif.) with the CELLQuest™ program (Beckton Dickinson).
DNA of treated Jurkat cells was stained with propidium iodine, and the cell cycle status of each cell was assessed by flow cytometry.
CBDC compounds 004, 402, 403, 404, 405, 406, 407, 408, 409, 410, and 411 were tested. Cells were harvested, DNA was stained with propidium iodine, and the percentage of cells in G2/M phase (% G2/M) was determined by flow cytometry.
Activated normal T cells and leukemic T cells (Jurkat cells) were treated with agents to induce accumulation of cells at G2 or M phase, and the effect of CBDC402 on progression of cells through cell cycle checkpoints was measured. After treatments, cells were harvested, DNA was stained, and the cell cycle stage for each cell was determined by flow cytometry as described above. […] In another experiment, activated normal T cells received no treatment (control) or were treated with colchicine or a combination of […] and colchicine.

[2] = tested on: HCT116 human colon carcinoma cells; experiment: G2 checkpoint induced by various anti-cancer agents in HCT116 cells (flow cytometry); type: cell-based; details: co-incubation with CBDC004 2, 10 or 50 μM, 24 hrs
Protocol: as §1, §2
DNA was stained with propidium iodine, and the cell cycle status of each cell was assessed by flow cytometry.

Activated normal T cells [3] = experiment: M phase checkpoint in colchicine-treated activated normal T cells (flow cytometry); type: cell-based, human; details: FIG. 10c
Protocol: as §1, §2
(§3) Activated normal T cells and leukemic T cells (Jurkat cells) were treated with agents to induce accumulation of cells at G2 or M phase, and the effect of CBDC402 on progression of cells through cell cycle checkpoints was measured. After treatments, cells were harvested, DNA was stained, and the cell cycle stage for each cell was determined by flow cytometry as described above. […]

Activated normal T cells [4] = experiment: G2 checkpoint in bleomycin-treated activated normal T cells (flow cytometry); type: cell-based, human
Protocol: as §1, §2, §3

Jurkat cells [5] = experiment: M phase checkpoint in colchicine-treated Jurkat cells (flow cytometry); type: cell-based, human; details: 24 hrs
Protocol: as §1, §2
Jurkat cells were treated with colchicine (5 ug/ml), and colchicine plus the compound CBDC402 in various concentrations (0.2, 0.39, 0.78, 1.56, 3.125, 6.25, 12.5, 25 and 50 ug/ml) for 24 hrs. DNA of treated Jurkat cells was stained with propidium iodine, and the cell cycle status of each cell was assessed by flow cytometry.

MK-45 cells = experiment: Colony formation analysis of MK-45 cells; type: cell-based, human; details: 14 days culture; for colony formation, combination with CPT-11: 10 μM CBDC compound plus 10 μg/ml CPT-11, 3 hours; for colony formation, CBDC compound alone: 10 μM, 3-hour treatment
Protocol: MK-45 cells from a human gastric cancer derived cell line, were seeded in 6-well plates at 1000 cells/well. After the overnight culture, the cells were treated 10 μM of various CBDC compounds, 10 μg/ml CPT-11, or a combination of CBDC compounds and CPT-11 for three (3) hours. The CBDC compounds tested were: CBDC402, CBDC412, CBDC413, and CBDC418. The culture medium was changed and cells were cultured for 14 days, after which the colonies were fixed with methanol and stained with 0.1% crystal violet.

[6] = tested on: HCT-116 human colon carcinoma cells; experiment: Xenograft tumor growth in SCID mice; type: in vivo; details: HCT-116 xenograft, intraperitoneal
Protocol: Treatment was initiated when the primary tumors reached the size of 0.1 cm^3 (7 or 8 mm, designated as Day 1).
Anti-cancer agent CPT-11 (CAMPTOSAR®, Irinotecan, a topoisomerase inhibitor) and CBDC402 were administered by intraperitoneal injection in the following treatment regimens: […] at 20 mg/kg once a week; CBDC402 at 20 mg/kg twice a week; CBDC402 at 40 mg/kg twice a week; CBDC402 at 20 mg/kg twice and week plus CPT-11 at 20 mg/kg once a week; and CBDC402 at 40 mg/kg twice a week plus CPT-11 at 20 mg/kg once a week. DMSO was administered as a control treatment. Tumor sizes were measured using calipers three times a week, and the volume was calculated using the formula; […]=[width (mm)^2×length (mm)]/2. Mean tumor sizes for each treatment group (n=4) were plotted against the days of treatment.

HCT116 cells = tested on: HCT116 cells
Protocol: The subG1 population was determined by staining HCT116 with Krishan's solution and analyzed by flow cytometer. The dead cells were identified on the basis of DNA content, and the percentage of cells in sub G1 (% subG1) was calculated.

Molecule: COc1ccc(OC(=O)c2ccc(Cl)cc2)cc1 [CBDC004, 4-Chloro-benzoic acid 4-methoxy-phenyl ester]
- abrogation of bleomycin-induced accumulation of G2/M cells (% G2/M) (Jurkat cells [1]; Jurkat cells, 24 hrs): abrogated the G2 cell cycle checkpoint in bleomycin-treated Jurkat cells in a dose-dependent manner
- effect on G2/M accumulation induced by bleomycin, adriamycin, camptothecin or cisplatin [2]: reduced the number of cells at G2/M

Molecule: Cc1ccc(OC(=O)c2ccc(Br)cc2)cc1 [CBDC402, 4-Bromo-benzoic acid p-tolyl ester]
- effect on colchicine-induced increase of cells at M phase (Activated normal T cells [3]; combination with colchicine): did not affect the colchicine-induced increase of activated normal T cells at M phase
- effect on bleomycin-induced increase of cells at G2 phase (Activated normal T cells [4]; combination of bleomycin and CBDC402, FIG. 10a): abolished the bleomycin-induced increase of activated normal T cells at G2 phase
- abrogation of colchicine-induced G2/M accumulation (Jurkat cells [5]; colchicine 5 ug/ml plus compound 0.2-50 ug/ml): did not abrogate this G2/M accumulation at any CBDC402 concentration
- colony formation, combination with CPT-11 (MK-45 cells): almost complete suppression of colony formation
- colony formation, CBDC compound alone (MK-45 cells): significant suppression of colony formation
- abrogation of bleomycin-induced accumulation of G2/M cells (% G2/M) (Jurkat cells [1]; Jurkat cells, 24 hrs): abolished the bleomycin-induced accumulation of G2/M cells in a dose-dependent manner; also recorded: abrogated the G2 cell cycle checkpoint in bleomycin-treated Jurkat cells in a dose-dependent manner
- relative G2 checkpoint abrogating activity among CBDC compounds tested (dose-response curve) (Jurkat cells [1]; Jurkat cells, bleomycin 40 ug/ml, 24 hrs, FIG. 3): showed the highest activity
- effect on bleomycin-induced increase of cells at G2 phase (Jurkat cells [1]; leukemic T cells (Jurkat cells), combination of bleomycin and CBDC402, FIG. 10b): abolished the large bleomycin-induced increase of leukemic T cells (Jurkat cells) at G2 phase
- tumor growth, CBDC402 alone ([6]; 20 or 40 mg/kg twice a week (both concentrations)): gave a slight reduction in tumor growth
- tumor growth, combination with CPT-11 ([6]; CBDC402 20 or 40 mg/kg twice a week plus CPT-11 20 mg/kg once a week): significantly reduced or inhibited tumor growth

Molecule: Cc1ccc(OC(=O)c2cc(F)c(F)c(F)c2)cc1 [CBDC403, 3,4,5-Trifluoro-benzoic acid p-toly 1 ester]
- abrogation of bleomycin-induced accumulation of G2/M cells (% G2/M) (Jurkat cells [1]; Jurkat cells, 24 hrs): abrogated the G2 cell cycle checkpoint in bleomycin-treated Jurkat cells in a dose-dependent manner

Molecule: CC.O=C(Oc1ccc(Br)cc1)c1ccc(F)cc1 [CBDC404, 4-Fluoro-benzoic acid 4-bromo-pheny 1 ester; compound with ethane]
- abrogation of bleomycin-induced accumulation of G2/M cells (% G2/M) (Jurkat cells [1]; Jurkat cells, 24 hrs): abrogated the G2 cell cycle checkpoint in bleomycin-treated Jurkat cells in a dose-dependent manner

Molecule: CC.Cc1ccc(OC(=O)c2ccc(Cl)c(Cl)c2)cc1 [CBDC405, 3,4-Dichloro-benzoic acid p-tolyl ester; compound with ethane]
- abrogation of bleomycin-induced accumulation of G2/M cells (% G2/M) (Jurkat cells [1]; Jurkat cells, 24 hrs): abrogated the G2 cell cycle checkpoint in bleomycin-treated Jurkat cells in a dose-dependent manner

Molecule: CC.Cc1ccc(OC(=O)c2ccc(Cl)cc2Cl)cc1 [CBDC406, 2,4-Dichloro-benzoic acid p-tolyl ester; compound with ethane]
- abrogation of bleomycin-induced accumulation of G2/M cells (% G2/M) (Jurkat cells [1]; Jurkat cells, 24 hrs): abrogated the G2 cell cycle checkpoint in bleomycin-treated Jurkat cells in a dose-dependent manner

Molecule: CC.Cc1ccc(OC(=O)c2ccc(F)cc2)cc1 [CBDC407, 4-Fluoro-benzoic acid p-tolyl ester; compound with ethane]
- abrogation of bleomycin-induced accumulation of G2/M cells (% G2/M) (Jurkat cells [1]; Jurkat cells, 24 hrs): abrogated the G2 cell cycle checkpoint in bleomycin-treated Jurkat cells in a dose-dependent manner

Molecule: CC.Cc1ccc(OC(=O)c2c(F)c(F)c(F)c(F)c2F)cc1 [CBDC408, 2,3,4,5,6-Pentafluoro-benzoic acid p-tolyl ester; compound with ethane]
- abrogation of bleomycin-induced accumulation of G2/M cells (% G2/M) (Jurkat cells [1]; Jurkat cells, 24 hrs): abrogated the G2 cell cycle checkpoint in bleomycin-treated Jurkat cells in a dose-dependent manner

Molecule: CC.Cc1ccc(OC(=O)c2ccc(Cl)cc2)cc1C [CBDC409, 4-Chloro-benzoic acid 3,4-dimethyl-phenyl ester; compound with ethane]
- abrogation of bleomycin-induced accumulation of G2/M cells (% G2/M) (Jurkat cells [1]; Jurkat cells, 24 hrs): abrogated the G2 cell cycle checkpoint in bleomycin-treated Jurkat cells in a dose-dependent manner

Molecule: CC.O=C(Oc1ccc(O)cc1)c1ccc(Cl)cc1 [CBDC410, 4-Chloro-benzoic acid 4-hydroxy-phenyl ester; compound with ethane]
- abrogation of bleomycin-induced accumulation of G2/M cells (% G2/M) (Jurkat cells [1]; Jurkat cells, 24 hrs): abrogated the G2 cell cycle checkpoint in bleomycin-treated Jurkat cells in a dose-dependent manner

Molecule: CC.O=C(Oc1ccc(O)cc1)c1ccc(F)cc1 [CBDC411, 4-Fluoro-benzoic acid 4-hydroxy-phenyl ester; compound with ethane]
- abrogation of bleomycin-induced accumulation of G2/M cells (% G2/M) (Jurkat cells [1]; Jurkat cells, 24 hrs): abrogated the G2 cell cycle checkpoint in bleomycin-treated Jurkat cells in a dose-dependent manner

Molecule: O=C(Oc1ccc(F)cc1)c1ccc(Br)cc1 [CBDC412, 4-Bromo-benzoic acid 4-fluoro-phenyl ester]
- colony formation, combination with CPT-11 (MK-45 cells): a slight suppression of colony formation above that seen with CPT-11 alone
- colony formation, CBDC compound alone (MK-45 cells): a slight suppression of colony formation

Molecule: O=C(Oc1ccc(C(F)(F)F)cc1)c1ccc(Br)cc1 [CBDC413, 4-Bromo-benzoic acid 4-trifluoromethyl-phenyl ester]
- colony formation, CBDC compound alone (MK-45 cells): did not have an appreciable effect on colony formation

Molecule: Cc1ccc(OC(=O)c2ccc(Br)cc2)cn1 [CBDC418, 4-Bromo-benzoic acid 6-methyl-pyridin-3-yl ester]
- colony formation, CBDC compound alone (MK-45 cells): did not have an appreciable effect on colony formation

Molecule: CCc1c2c(nc3ccc(OC(=O)N4CCC(N5CCCCC5)CC4)cc13)-c1cc3c(c(=O)n1C2)COC(=O)[C@]3(O)CC [CPT-11, Irinotecan, reference compound]
- colony formation, CPT-11 alone (MK-45 cells; 10 μg/ml, 3 hours): significant suppression of colony formation
- tumor growth, CPT-11 alone ([6]; 20 mg/kg once a week): reduced tumor growth

Molecule: COc1cccc2c1C(=O)c1c(O)c3c(c(O)c1C2=O)C[C@@](O)(C(=O)CO)C[C@@H]3O[C@H]1C[C@H](N)[C@H](O)[C@H](C)O1 [adriamycine, adriamycin]
- cytotoxic effect (% subG1) of anti-cancer agent alone (HCT116 cells): had a cytotoxic effect on HCT116 cells

Molecule: CC[C@@]1(O)C(=O)OCc2c1cc1n(c2=O)Cc2cc3ccccc3nc2-1 [canptothecine, camptothecin]
- cytotoxic effect (% subG1) of anti-cancer agent alone (HCT116 cells; HCT116 cells, without CBDC004): had a cytotoxic effect on HCT116 cells

Molecule: COc1cc2c(c(OC)c1OC)-c1ccc(OC)c(=O)cc1[C@@H](NC(C)=O)CC2 [colchicine, reference compound]
- accumulation of cells in M phase by colchicine alone (Activated normal T cells [3]): caused an accumulation of cells in M phase
- accumulation of cells in G2/M phase by agent alone (Jurkat cells [5]; colchicine 5 ug/ml): induced an accumulation of cells in G2/M phase cells

Molecule: bleomycin [reference compound]
- accumulation of cells at G2 phase by bleomycin alone (Activated normal T cells [4]; FIG. 10a): caused accumulation of a minor population of cells at G2 phase
- accumulation of cells in G2/M phase by agent alone (Jurkat cells [1]; Jurkat cells, bleomycin 40 μg/ml, 24 hrs): induced an accumulation of cells in cell cycle G2/M phase
- accumulation of cells at G2 phase by bleomycin alone (Jurkat cells [1]; leukemic T cells (Jurkat cells), FIG. 10b): caused accumulation of a major population of cells at G2 phase
